Laboratory results reported in US10898469B2, “Imidazolylamide derivative” (Sumitomo Dainippon Pharma Co., Ltd., priority 2016, dated 2021).
pIC50: −log10 of the molar value.

Assays:
Assay type in all cases: cell-based, human
HCT-116 cells [1] = assay: Inhibition test for sphere-forming ability of cancer cells (Test Example 1), HCT-116; conditions: for pIC50: HCT-116 cells, concentration for 50% inhibition of cell proliferation, read-out: IC50 (μmol/L) HCT-116 (Sphere IC50 value)
Method in brief: (§1)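 Cells were seeded at 350-800 cells/well in ultra-low-attachment plates in serum-free DMEM/F12 with 2% B27, 20 ng/mL EGF, 10 ng/mL bFGF and 5 μg/mL insulin. Compounds were added at 0.1% final DMSO for 4 days. Viable cells were read by CellTiter-Glo luminescence to give Sphere IC50 (μmol/L).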

HT-29 cells [2] = assay: Inhibition test for sphere-forming ability of cancer cells (Test Example 1), HT-29; conditions: concentration for 50% inhibition of cell proliferation, read-out: IC50 (μmol/L) HT-29 (Sphere IC50 value)
Method in brief: as §1

FaDu cells [3] = assay: Inhibition test for sphere-forming ability of cancer cells (Test Example 1), FaDu; conditions: concentration for 50% inhibition of cell proliferation, read-out: IC50 (μmol/L) FaDu (Sphere IC50 value)
Method in brief: as §1

HCT-116 cells [4] = assay: Inhibition test for sphere-forming ability of cancer cells in the presence of BSA (Test Example 2), HCT-116; conditions: for pIC50: HCT-116 cells, in the presence of 5% BSA, cultured 4 days
Method in brief: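 Spheres grown 4 days in ultra-low-attachment wells, 350-800 cells/well, in DMEM/F12 with 2% B27, 20 ng/mL EGF, 10 ng/mL bFGF, 5 μg/mL insulin and 5% BSA; 0.1% DMSO final. Viable cells read by CellTiter-Glo luminescence; Sphere IC50 (μmol/L) for 50% proliferation inhibition.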

HT-29 cells [5] = assay: Inhibition test for sphere-forming ability of cancer cells in the presence of BSA (Test Example 2), HT-29; conditions: in the presence of 5% BSA, cultured 4 days
Description: (§2) Human colorectal cancer-derived HCT-116 cells, human colon-adenocarcinoma-derived HT-29 cells, and human pharyngeal cancer-derived FaDu cells were available from American Type Culture Collection (ATCC). HCT-116 cells and HT-29 cells were cultured at 37° C. under 5% CO2 using the McCoy's 5a medium containing 10% fetal bovine serum (FBS) and 1% penicillin/streptomycin, and FaDu cells were cultured at 37° C. under 5% CO2 using the MEM medium containing 10% FBS, 1% non-essential amino acid, 1% sodium pyruvate, 5% bovine serum albumin (BSA), and 1% penicillin/streptomycin. HCT-116 cells, HT-29 cells, and FaDu cells were seeded in a 384 Well Black Clear Bottom Ultra-Low Attachment Microplate (Corning Cat. No. 3827) in an amount of 350-800 cells/well using the DMEM/F12 medium containing 2% B27 supplement (GIBCO), 20 ng/mL epidermal growth factor (EGF) (peprotech), 10 ng/mL basic fibroblast growth factor (bFGF) (peprotech), 5 μg/mL insulin (Sigma), 5% bovine serum albumin (BSA), and 1% penicillin/streptomycin. Each test compound was added into each well to adjust the final concentration of DMSO to 0.1%, and the cells were cultured for 4 days. The number of viable cells in each well was then measured with CellTiter-Glo® Luminescent Cell Viability Assay (Promega) to calculate the concentration of each test compound for 50% inhibition of cell proliferation (Sphere IC50 value; μmol/L).
(§3) The experiment of Test Example 2 was performed for each compound of each Example.
(§4) The concentration of each test compound for 50% inhibition of cell proliferation (Sphere IC50 value; μmol/L) is shown in the following Table.

FaDu cells [6] = assay: Inhibition test for sphere-forming ability of cancer cells in the presence of BSA (Test Example 2), FaDu; conditions: in the presence of 5% BSA, cultured 4 days
Description: as §2, §3, §4

Row | pIC50 (HCT-116 cells [1]) | pIC50 (HT-29 cells [2]) | pIC50 (FaDu cells [3]) | pIC50 (HCT-116 cells [4]) | pIC50 (HT-29 cells [5]) | pIC50 (FaDu cells [6]) | pIC50 (HCT-116 cells [1]; Homo sapiens) | pIC50 (HT-29 cells [2]; Homo sapiens) | pIC50 (FaDu cells [3]; Homo sapiens) | pIC50 (HCT-116 cells [4]; Homo sapiens, HCT-116, 96 h) | pIC50 (HT-29 cells [5]; Homo sapiens, 96 h) | pIC50 (FaDu cells [6]; Homo sapiens, 96 h) | Compound | inhibitory effect on the sphere-forming ability of cancer cells (HCT-116 cells [1]; Test Example 1, summary in words, cell line not given (HCT-116, HT-29, FaDu tested)) | inhibitory effect on the sphere-forming ability of cancer cells (HCT-116 cells [4]; Test Example 2, in the presence of 5% BSA, summary in words, cell line not given (HCT-116, HT-29, FaDu tested))
1 | 6.18 | 6.14 | 6.09 | 5.19 | 5.49 | 6.18 | – | – | – | – | – | – | COc1ccc(C(=O)Nc2cn(Cc3ccc(F)c(F)c3F)cn2)cc1OC [Example 153] | – | –
2 | 6.15 | 6.10 | 6.06 | < 5.00 | 6.05 | 6.22 | – | – | – | – | – | – | COc1ccc(C(=O)Nc2cn(Cc3cc(F)cc(F)c3F)cn2)cc1OC [Example 154] | – | –
3 | 5.52 | 5.18 | 5.06 | < 5.00 | < 5.00 | 5.15 | – | – | – | – | – | – | COc1ccc(C(=O)Nc2cn(Cc3c(F)ccc(F)c3F)cn2)cc1OC [Example 155] | – | –
4 | 6.27 | 6.41 | 6.26 | 5.29 | 6.23 | 6.38 | – | – | – | – | – | – | COc1ccc(C(=O)Nc2cn(Cc3cc(F)c(F)c(F)c3F)cn2)cc1OC [Example 156] | – | –
5 | 5.13 | 5.16 | 5.07 | < 5.00 | 5.13 | 5.25 | – | – | – | – | – | – | COc1ccc(C(=O)Nc2cn(Cc3c(F)c(F)c(F)c(F)c3F)cn2)cc1OC [Example 157] | – | –
6 | 5.45 | 5.82 | 5.76 | < 5.00 | 5.26 | 5.30 | – | – | – | – | – | – | COc1ccc(C(=O)Nc2cn(Cc3ccc(F)cc3C(F)(F)F)cn2)cc1OC [Example 163] | – | –
7 | 5.00 | 5.17 | 5.44 | < 5.00 | 5.19 | 5.28 | – | – | – | – | – | – | O=C(Nc1cn(Cc2cccc(Cl)c2)cn1)c1cnc2[nH]ccc2c1 [Example 177] | – | –
8 | 5.17 | 6.00 | 5.22 | < 5.00 | 5.19 | 5.23 | – | – | – | – | – | – | CNc1ccc(C(=O)Nc2cn(Cc3cccc(Cl)c3)cn2)cn1 [Example 225] | – | –
9 | – | – | – | – | – | – | 7.22 | 7.30 | 7.30 | 6.44 | 7.22 | 7.40 | COc1ccc(C(=O)Nc2cn(Cc3cc(F)c(F)c(F)c3)cn2)cc1OC [Example 236, 3,4-dimethoxy-N-[1-(3,4,5-trifluorobenzyl)-1H-imidazol-4-yl]benzamide] | particularly potent inhibitory effect | particularly potent inhibitory effect
10 | – | – | – | – | – | – | 5.04 | 6.38 | 5.14 | 5.01 | 5.15 | 5.17 | CC(=O)Nc1ccc(C(=O)Nc2cn(Cc3cccc(Cl)c3)cn2)cn1 [Example 247, 6-(Acetylamino)-N-[1-(3-chlorobenzyl)-1H-imidazol-4-yl]nicotinamide] | – | –
11 | 6.10 | 6.10 | 6.15 | 5.13 | 5.22 | 5.35 | – | – | – | – | – | – | Cc1csc(NC(=O)c2cn(Cc3cccc(Cl)c3)cn2)n1 [Example 257] | – | –

Row | Compound | pIC50 (HCT-116 cells [1]) | pIC50 (HT-29 cells [2]) | pIC50 (FaDu cells [3]) | pIC50 (HCT-116 cells [4]) | pIC50 (HT-29 cells [5]) | pIC50 (FaDu cells [6]) | pIC50 (HCT-116 cells [1]; Homo sapiens) | pIC50 (HT-29 cells [2]; Homo sapiens) | pIC50 (FaDu cells [3]; Homo sapiens) | pIC50 (HCT-116 cells [4]; Homo sapiens, HCT-116, 96 h) | pIC50 (HT-29 cells [5]; Homo sapiens, 96 h) | pIC50 (FaDu cells [6]; Homo sapiens, 96 h) | inhibitory effect on the sphere-forming ability of cancer cells (HCT-116 cells [1]; Test Example 1, summary in words, cell line not given (HCT-116, HT-29, FaDu tested)) | inhibitory effect on the sphere-forming ability of cancer cells (HCT-116 cells [4]; Test Example 2, in the presence of 5% BSA, summary in words, cell line not given (HCT-116, HT-29, FaDu tested))
12 | COc1ccc(NC(=O)c2cn(Cc3cc(F)c(F)c(F)c3)cn2)cc1OC [Example 251, N-(3,4-Dimethoxyphenyl)-1-(3,4,5-trifluorobenzyl)-1H-imidazole-4-carboxamide] | – | – | – | – | – | – | 6.68 | 6.27 | 6.37 | 6.11 | 6.22 | 6.26 | – | –
13 | O=C(Nc1ccc2c(O)cccc2c1)c1cn(Cc2cccc(Cl)c2)cn1 [Example 256] | 5.30 | 5.14 | 6.19 | 5.21 | 5.18 | 5.36 | – | – | – | – | – | – | – | –
